This passage reports Kd and Activity results from ChEMBL document CHEMBL1140977, “Synthesis and screening of a cyclic peptide library: discovery of small-molecule ligands against human prolactin receptor” (Bioorg Med Chem, 2009).

The target of one test is T1, Prolactin receptor (Homo sapiens, UniProt P16471).
T1 sequence (P16471 whole entry): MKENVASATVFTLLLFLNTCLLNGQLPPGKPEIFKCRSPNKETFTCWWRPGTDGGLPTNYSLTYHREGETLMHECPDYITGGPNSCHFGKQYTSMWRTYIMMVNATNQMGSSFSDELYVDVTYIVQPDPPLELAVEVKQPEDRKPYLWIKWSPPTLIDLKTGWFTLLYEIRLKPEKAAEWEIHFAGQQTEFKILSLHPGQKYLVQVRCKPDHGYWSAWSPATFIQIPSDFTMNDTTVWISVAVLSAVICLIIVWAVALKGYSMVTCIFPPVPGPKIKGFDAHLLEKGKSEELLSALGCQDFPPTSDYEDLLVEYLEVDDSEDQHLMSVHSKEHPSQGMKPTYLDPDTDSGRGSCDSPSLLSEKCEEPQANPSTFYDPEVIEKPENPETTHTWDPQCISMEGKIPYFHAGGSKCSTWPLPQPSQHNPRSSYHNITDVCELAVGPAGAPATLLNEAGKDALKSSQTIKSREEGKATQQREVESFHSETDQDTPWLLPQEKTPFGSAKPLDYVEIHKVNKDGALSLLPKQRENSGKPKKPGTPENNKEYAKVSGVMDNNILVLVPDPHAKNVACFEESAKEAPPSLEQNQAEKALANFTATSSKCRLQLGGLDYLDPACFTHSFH
The test is described as follows: (§1) Binding affinity to human prolactin receptor extracellular binding domain by surface plasmon […]. (SPR reads the build-up and loss of mass on a sensor chip optically.)

Test [1] concerns the target T2, Prolactin receptor (Homo sapiens) (UniProt P16471).
T2 sequence (whole entry): T1 sequence (P16471 whole entry)
The description is as §1.

The source made the active and inactive calls. The rule behind the calls is not given here. Square brackets hold non-standard residues; d marks the D form. Peptide text beside a SMILES is read from it. NMeL = CN[C@@H](CC(C)C)C(=O)O

In general, Kd refers to the equilibrium constant for the complex coming apart.

On Prolactin receptor, `CC(C)[C@@H]1NC(=O)[C@H](CCCNC(=N)N)NC(=O)[C@H](CO)NC(=O)[C@H](CCC(N)=O)NC(=O)[C@H](Cc2ccc(O)cc2)NC(=O)[C@H](CCCNC(=N)N)NC(=O)[C@H](C)NC(=O)[C@H](CCC(=O)O)NC1=O` (cyclo(ARYQSRVE)) registered a Kd of 2 µM. That is a single-digit micromolar value.

With `CC(C)C[C@H]1C(=O)N[C@@H](CCC(N)=O)C(=O)N[C@@H](CCCNC(=N)N)C(=O)N[C@@H](Cc2ccccc2)C(=O)N[C@@H](C(C)C)C(=O)N[C@@H](CCC(=O)O)C(=O)N[C@@H](C)C(=O)NCC(=O)N1C` (cyclo(AG[NMeL]QRFVE)), the result in test [1] was inactive.

`CC(C)C[C@H]1NC(=O)[C@@H](C)NC(=O)[C@H](CCC(=O)O)NC(=O)[C@H](C(C)C)NC(=O)[C@H](CCCNC(=N)N)NC(=O)[C@H](Cc2ccc(O)cc2)NC(=O)[C@H](CO)NC(=O)[C@H](Cc2ccc(O)cc2)NC1=O`: binding on Prolactin receptor was put at a Kd of 3 µM.
